ChEMBL document CHEMBL3739366, “Discovery of HTL6641, a dual orexin receptor antagonist with differentiated pharmacodynamic properties” (Medchemcomm, 2015)

These molecules were tested against T1, Orexin/Hypocretin receptor type 1 (Homo sapiens, UniProt O43613) (assay: Displacement of [3H]-4-(2,6-Difluoro-4-methoxybenzyl)-2-(5,6-dimethoxypyridin-3-yl)-2H-1,2,4-benzothiadiazin-3(4H)-one 1,1-dioxide from orexin receptor-1 (unknown origin) after 90 mins).
T1 sequence (O43613 whole entry): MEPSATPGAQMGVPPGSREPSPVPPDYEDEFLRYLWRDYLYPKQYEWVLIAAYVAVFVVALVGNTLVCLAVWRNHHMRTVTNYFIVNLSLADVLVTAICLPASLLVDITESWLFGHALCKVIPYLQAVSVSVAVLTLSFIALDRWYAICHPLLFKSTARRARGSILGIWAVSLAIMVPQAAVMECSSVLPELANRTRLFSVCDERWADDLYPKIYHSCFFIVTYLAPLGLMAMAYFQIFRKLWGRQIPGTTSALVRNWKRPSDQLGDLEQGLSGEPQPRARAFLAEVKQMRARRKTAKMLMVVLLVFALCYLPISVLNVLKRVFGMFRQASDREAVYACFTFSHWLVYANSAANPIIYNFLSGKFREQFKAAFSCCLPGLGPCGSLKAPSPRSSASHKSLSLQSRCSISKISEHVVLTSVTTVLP

Q: `COc1ccc(N2C(=O)N(Cc3ccc(F)cc3Cl)c3ccccc3S2(=O)=O)cc1OC` was tested. Which Ki did it give?
A: Its Ki is over 2510 nM.

Q: Which Ki does the source give for `COc1ccc(N2C(=O)N(Cc3c(F)cc(F)cc3Cl)c3ccccc3S2(=O)=O)cc1OC` here?
A: The Ki was 25.1 nM.

Q: `COc1ccc(N2C(=O)N(Cc3ccccc3F)c3ccccc3S2(=O)=O)cc1OC` was tested. Which Ki did it give?
A: The Ki was 316 nM.

Q: `COc1cc(F)c(CN2C(=O)N(c3ccc(OC)c(OC)c3)S(=O)(=O)c3ccccc32)c(F)c1` was tested. Which Ki did it give?
A: The Ki was 2 nM.

Q: With `COc1ccc(N2C(=O)N(Cc3c(F)cc(F)cc3OC)c3ccccc3S2(=O)=O)cc1OC` as the molecule, how does the Ki read?
A: Its Ki is 63.1 nM.

Q: With `COc1ccc(N2C(=O)N(Cc3c(F)cccc3Cl)c3ccccc3S2(=O)=O)cc1OC` as the molecule, how does the Ki read?
A: The Ki was 7.94 nM.

Q: How did the Ki turn out when `COc1cc(F)c(CN2C(=O)N(c3ccc(OC)c(OC)c3)S(=O)(=O)c3ccccc32)c(Cl)c1` was run?
A: The Ki was 0.398 nM.

Q: For `COc1ccc(-n2c(=O)c3ccccc3n(Cc3ccccc3Cl)c2=O)cc1OC`, which Ki is on record?
A: The Ki was over 6310 nM.

Q: With `COc1ccc(N2C(=O)N(Cc3c(F)cc(C)cc3Cl)c3ccccc3S2(=O)=O)cc1OC` as the molecule, how does the Ki read?
A: The Ki was 6.31 nM.

Q: `COc1ccc(N2C(=O)N(Cc3c(F)cc(F)cc3F)c3ccccc3S2(=O)=O)cc1OC` was tested. Which Ki did it give?
A: The Ki was 50.1 nM.

Q: With `COc1ccc(N2C(=O)N(Cc3ccccc3)c3ccccc3S2(=O)=O)cc1OC` as the molecule, how does the Ki read?
A: Its Ki is 2000 nM.

What follows are molecules tested against T2, Orexin receptor type 2 (Homo sapiens, UniProt O43614) (assay: Displacement of [3H]EMPA from human orexin receptor-2 expressed in HEK293 cells after 90 mins by scintillation counting).
T2 sequence (O43614 whole entry): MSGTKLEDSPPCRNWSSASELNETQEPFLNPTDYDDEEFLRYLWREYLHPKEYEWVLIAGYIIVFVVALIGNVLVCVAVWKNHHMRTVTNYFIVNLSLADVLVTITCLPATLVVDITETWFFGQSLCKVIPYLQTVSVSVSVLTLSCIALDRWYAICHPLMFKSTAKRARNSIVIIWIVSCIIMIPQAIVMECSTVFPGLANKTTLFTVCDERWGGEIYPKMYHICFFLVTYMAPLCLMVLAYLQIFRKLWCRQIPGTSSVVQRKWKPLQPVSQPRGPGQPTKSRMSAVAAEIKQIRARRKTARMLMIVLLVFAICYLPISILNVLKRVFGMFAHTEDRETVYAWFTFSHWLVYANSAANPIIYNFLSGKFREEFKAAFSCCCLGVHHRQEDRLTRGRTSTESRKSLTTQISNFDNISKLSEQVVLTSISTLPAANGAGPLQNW
Assay type: cell-based

Q: How did the Ki turn out when `COc1ccc(N2C(=O)N(Cc3ccc4c(c3)OCO4)c3ccccc3S2(=O)=O)cc1OC` was run?
A: The Ki was 251 nM.

Q: How did the Ki turn out when `COc1ccc(N2C(=O)N(Cc3ccc(F)cc3Cl)c3ccccc3S2(=O)=O)cc1OC` was run?
A: Its Ki is 25.1 nM.

Q: `COc1ccc(N2C(=O)N(Cc3c(F)cc(F)cc3Cl)c3ccccc3S2(=O)=O)cc1OC` was tested. Which Ki did it give?
A: The Ki was 1 nM.

Q: How did the Ki turn out when `COc1ccc(N2C(=O)N(Cc3ccccc3F)c3ccccc3S2(=O)=O)cc1OC` was run?
A: The Ki was 6.31 nM.

Q: Which Ki does the source give for `COc1cc(F)c(CN2C(=O)N(c3ccc(OC)c(OC)c3)S(=O)(=O)c3ccccc32)c(F)c1` here?
A: Its Ki is 0.501 nM.

Q: With `COc1ccc(N2C(=O)N(Cc3c(F)cc(F)cc3OC)c3ccccc3S2(=O)=O)cc1OC` as the molecule, how does the Ki read?
A: The Ki was 6.31 nM.

Q: `COc1ccc(N2C(=O)N(Cc3c(F)cccc3Cl)c3ccccc3S2(=O)=O)cc1OC` was tested. Which Ki did it give?
A: Its Ki is 0.794 nM.

Q: `COc1cc(F)c(CN2C(=O)N(c3ccc(OC)c(OC)c3)S(=O)(=O)c3ccccc32)c(Cl)c1` was tested. Which Ki did it give?
A: The Ki was 0.1 nM.

Q: How did the Ki turn out when `COc1ccc(-n2c(=O)c3ccccc3n(Cc3ccccc3Cl)c2=O)cc1OC` was run?
A: Its Ki is over 10000 nM.

Q: How did the Ki turn out when `COc1ccc(N2C(=O)N(Cc3c(F)cc(C)cc3Cl)c3ccccc3S2(=O)=O)cc1OC` was run?
A: The Ki was 0.794 nM.

Q: Which Ki does the source give for `COc1ccc(N2C(=O)N(Cc3c(F)cc(F)cc3F)c3ccccc3S2(=O)=O)cc1OC` here?
A: Its Ki is 2 nM.

Q: With `COc1ccc(N2C(=O)N(Cc3ccccc3)c3ccccc3S2(=O)=O)cc1OC` as the molecule, how does the Ki read?
A: Its Ki is 79.4 nM.
